Results taken from patent US7432295B2, “Preparation of compounds useful for the detection of hypoxia” (The Trustees of The University of Pennsylvania, priority 1999, dated 2008).
Several values for one entry are separate records, joined by “and”; a condition that tells them apart may be missing. Identical values can stand only once. Values belong to the molecule of their own block, whether it stands above or below them.

Tests used:
[1] = cited from earlier work
hypoxic tumors = details: in vivo; cited from earlier work
[2] = Distribution of radioactive drug in various organs and tissues of tumor-bearing rats (γ-counter); assay type: in vivo, male Buffalo rats; details: I/V
Method: To measure the distribution of radioactive drug in various organs and tissues, the solution of […] in saline buffer was injected I/V into 3 male Buffalo rats. […] The radioactivity of samples was measured by γ-counter and corrected for weight and the time of decay.
Results from 3 animals are shown.

[3] = tested on: hypoxic Q7 tumor (Morris 7777 hepatoma); assay: PET analysis of a tumor-bearing rat treated with [18F]-EF5; assay type: in vivo, male Buffalo rats; details: rat bearing Q7 tumor in the leg, 150 minutes post injection
Method: The dark spot on the right side of the image represents a tumor and the dark spot in the middle of the image represents a bladder.
FIG. 3 illustrates a PET image of a tumor-bearing rat treated with 18-F-labeled EF5, 150 minutes post injection. The dark spot in the right side of the image represents the tumor and the dark spot in the middle of the image represents the bladder.
Q7 cells were obtained from the American Type Culture Collection (ATCC). They were maintained in exponential growth by transfers at 3.5 day intervals with standard culture conditions. Growth medium was Eagle's NEM supplemented with 15% fetal calf serum and standard penicillin and streptomycin.
All animal studies conformed to the regulations of the University of Pennsylvania Institutional Animal Care and Use Committee. Male Buffalo rats (Harlan Sprague Dawley, Indianapolis, Ind., USA) were used for all studies. Donor tumors were created by injecting 1 million Q7 cells subcutaneously into the thigh region. The average growth time to achieve a 1 cm diameter tumor was 21 days. Tumors of less than 2 g were used in the experiments.

[4] = multiple radioactive products distinct from parent drug following renal clearance; cited from earlier work

SMILES: O=C(Cn1ccnc1[N+](=O)[O-])NCC(F)(F)C(F)(F)F [EF5, 2-(2-nitro-1H-imidazol-1-yl)-N-(2,2,3,3,3-pentafluoropropyl)acetamide]
Drug stability in vivo [1]: high drug stability in vivo | Blood-brain barrier passage ([1]; in vivo): ability to cross blood-brain barrier

SMILES: O=C(Cn1ccnc1[N+](=O)[O-])NCCCF [[^18F]-EF1]
Biodistribution (hypoxic tumors): relatively uniform biodistribution limited by slow equilibration with brain tissue | Labeling of hypoxic tumors (hypoxic tumors): good potential for labeling of hypoxic tumors

Tissue distribution of [^18F]-EF5 in rats bearing tumors ([2]; Blood, 3 hrs): 0.260 % dose/gram and 0.279 % dose/gram | Tissue distribution of [^18F]-EF5 in rats bearing tumors ([2]; Bone, 3 hrs): 0.040 % dose/gram and 0.079 % dose/gram | Tissue distribution of [^18F]-EF5 in rats bearing tumors ([2]; Bone, 4 hrs): 0.071 % dose/gram | Tissue distribution of [^18F]-EF5 in rats bearing tumors ([2]; Brain, 3 hrs): 0.116 % dose/gram and 0.176 % dose/gram | Tissue distribution of [^18F]-EF5 in rats bearing tumors ([2]; Brain, 4 hrs): 0.150 % dose/gram | Tissue distribution of [^18F]-EF5 in rats bearing tumors ([2]; Heart, 3 hrs): 0.209 % dose/gram and 0.318 % dose/gram | Tissue distribution of [^18F]-EF5 in rats bearing tumors ([2]; Heart): 0.277 % dose/gram | Tissue distribution of [^18F]-EF5 in rats bearing tumors ([2]; Intestine, 3 hrs): 0.410 % dose/gram and 0.477 % dose/gram | Tissue distribution of [^18F]-EF5 in rats bearing tumors ([2]; Intestine, 4 hrs): 0.376 % dose/gram | Tissue distribution of [^18F]-EF5 in rats bearing tumors ([2]; Kidney, 3 hrs): 0.510 % dose/gram and 0.650 % dose/gram | Tissue distribution of [^18F]-EF5 in rats bearing tumors ([2]; Kidney, 4 hrs): 0.500 % dose/gram | Tissue distribution of [^18F]-EF5 in rats bearing tumors ([2]; Liver, 3 hrs): 0.399 % dose/gram and 0.578 % dose/gram | Tissue distribution of [^18F]-EF5 in rats bearing tumors ([2]; Liver, 4 hrs): 0.489 % dose/gram | Tissue distribution of [^18F]-EF5 in rats bearing tumors ([2]; Lung, 3 hrs): 0.217 % dose/gram and 0.357 % dose/gram | Tissue distribution of [^18F]-EF5 in rats bearing tumors ([2]; Lung, 4 hrs): 0.326 % dose/gram | Tissue distribution of [^18F]-EF5 in rats bearing tumors ([2]; Muscle, 3 hrs): 0.162 % dose/gram and 0.246 % dose/gram | Tissue distribution of [^18F]-EF5 in rats bearing tumors ([2]; Muscle, 4 hrs): 0.187 % dose/gram | Tissue distribution of [^18F]-EF5 in rats bearing tumors ([2]; Spleen, 3 hrs): 0.192 % dose/gram and 0.294 % dose/gram | Tissue distribution of [^18F]-EF5 in rats bearing tumors ([2]; Spleen, 4 hrs): 0.242 % dose/gram
SMILES: O=C(Cn1ccnc1[N+](=O)[O-])NCC(F)(F)C(F)(F)F [[^18F]-EF5, [^18F]-2-(2-Nitro-1H-imidazol-1-yl)-N-(2,2,3,3,3-pentafluoropropyl)-acetamide]
Visibility of the tumor in the PET image [3]: clearly visible

SMILES: O=[N+]([O-])c1nccn1CC(O)C[18F] (stereo not shown) [[^18F]-fluoromisonidazole]
Stability in vivo [4]: not stable in vivo
